Results as given in a melting point compilation (Tetko et al.; mined from patent text by program, amines drawn as free bases though some values may be those of a salt).

First: CCCC(=O)Nc1ccc2c(c1)CCC(CN1CCC(O)(c3ccccc3)CC1)C2=O (stereo not given)
Second: Cc1cccc(NC(=O)NCC(=O)N(CC(=O)N2CCCCC2C)c2ccccc2)c1 (racemic)
The melting point of the first is higher: 196 to 198 °C for the first, 188 °C for the second.

First: COC(=O)c1cccc(C2C(C#N)=C(N)Oc3c2ccc2ncccc32)c1 (stereo not given)
Second: COc1ccc(NC(=O)c2ccncc2)c2c1oc1ccccc12
The melting point of the first is lower: 203 to 206 °C for the first, 221 °C for the second.

First: N#Cc1ccc(C(=O)c2ccc(F)cc2)c(CO)c1
Second: COc1cc(C)ccc1Oc1ccc(C=O)cc1C#N
The melting point of the first is lower: 85 °C for the first, 112 to 113 °C for the second.

First: CC(C)(C)NC(=O)[C@@H]1CCCN1C(=O)[C@@H](O)[C@H](Cc1ccccc1)NC(=O)[C@H](CC(N)=O)NC(=O)COc1ccc(NC(=O)OCc2ccccc2)cc1
Second: CC(C)(C)[C@H](NC(=O)[C@@H](CC(=O)OCc1ccccc1)n1ccc(-c2ccc(-c3ccc(C#N)cc3)cc2)c1)C(=O)Nc1ccncc1
The melting point of the first is lower: 103 to 105 °C for the first, 115 to 116 °C for the second.

First: BrCCON=C1c2ccccc2-n2cccc21
Second: Nc1nc(-c2ccccc2)c(CCBr)c2ncnn12
The melting point of the first is lower: 65 °C for the first, 193 to 194 °C for the second.

First: CNC(=O)CONC(=O)c1cc(Br)cc(Br)c1NC(=O)c1cc(Br)nn1-c1ncccc1Cl
Second: CCCc1c(OCCCS(=O)(=O)c2nc3ccc(C(=O)O)cc3[nH]2)ccc(C(C)=O)c1O
The melting point of the first is higher: 220 to 221 °C for the first, 212 to 215 °C for the second.

Compared with `COc1ccc(CN2CCc3cc(O)c(OC)cc3C2)cc1`, `COc1cccc(-c2cc3c(n2-c2ccc(O)c(C(=O)O)c2)CCCC3)c1` is higher in melting point: 162 to 163 °C for the first, 175 to 177 °C for the second.

First: CCON=Cc1cc(-n2c(=O)n(C)c(=S)n(C)c2=O)ccc1Cl
Second: CCOC(=O)c1nnc2n1CC(=O)N(C)c1ccc(Cl)cc1-2
The melting point of the first is lower: 139 to 141 °C for the first, 201 to 202 °C for the second.

First: COC(Cc1c(Br)cc(Br)c(N)c1Br)C(=O)O (stereo not given)
Second: COC(=O)Cc1c(Br)csc1Br
The melting point of the first is higher: 173 to 175 °C for the first, 38.5 to 39 °C for the second.

Compared with `CC(C)(C)OC(=O)NCC1Cc2ccc(OCc3ccccc3)cc2C1` (stereo not given), `CC(C)(C)OC(=O)NC[C@H]1CC[C@H](CNS(=O)(=O)c2cccc3ccccc23)CC1` is higher in melting point: 95 to 98 °C for the first, 199 to 200 °C for the second.

Compared with `O=C(NCCc1ccccc1)c1ccccc1-c1ccccc1CNS(=O)(=O)c1cccc(F)c1`, `O=C1Nc2ccccc2N(C(=O)CNCCc2ccccc2)C2CCC(Cc3ccccc3)C12` (stereo not given) is lower in melting point: 153 °C for the first, 108 to 109 °C for the second.

First: Cc1ccc(-c2cc([Si](C)(C)C)oc2-c2ccc(Cl)cc2)cc1
Second: Cc1ccc(-c2c(-c3ccncc3)nc(-c3c(Cl)cccc3Cl)n2C)cc1
The melting point of the first is lower: 80 to 84 °C for the first, 214 to 217 °C for the second.

Compared with `CCOC(=O)c1cn(Cc2ccccc2)nc1OCc1ccc(OCc2nc(-c3ccco3)oc2C)c(CC)c1`, `COC(=O)c1cccc(CN2CCN(c3nc(C)c(C(=O)NCc4ccccc4)s3)C2=O)c1` is lower in melting point: 125 to 126 °C for the first, 49 to 51 °C for the second.

First: CC(C)OC(=O)c1ccc(=O)n(CCNC(=O)c2cccnc2)c1
Second: O=C(/C=C/c1cccnc1)NCCc1ccccc1O
The melting point of the first is lower: 160 to 161 °C for the first, 170 to 172 °C for the second.

First: CCCc1c(OCCOc2cccc3c2CCCC3)ccc2c1OC(CCC(=O)O)(CCC(=O)O)CC2=O
Second: CCOC(=O)C(=O)Nc1c([N+](=O)[O-])ccc2c1CCCC2
The melting point of the first is higher: 160 to 162 °C for the first, 121 to 122 °C for the second.

First: COC1CC(C)(C)Cc2c1c(C)nn2-c1ccccn1 (stereo not given)
Second: COc1ccc2c(c1)C(=O)N(c1ccc(C(C)C)cn1)C2
The melting point of the first is lower: 66 to 68 °C for the first, 109 to 110 °C for the second.

First: CCOC(=O)C1C(=O)Nc2ccccc2SC1c1ccc(C)cc1 (stereo not given)
Second: COc1cc(Nc2nc3c(s2)CCCC3c2ccccc2)ccc1C(=O)NN (stereo not given)
The melting point of the first is lower: 185 °C for the first, 297 to 299 °C for the second.

Compared with `COC(=O)c1cccc2[nH]ncc12`, `Cc1cc(OC(=O)c2ccc(Cl)cc2)n(C)n1` is lower in melting point: 153 to 155 °C for the first, 100 to 101 °C for the second.

First: COC(=O)c1ccc(C(C(N)=O)C(C)c2cc(Cl)ccc2N2CCCC2)cc1 (stereo not given)
Second: CCSCCC(=O)NCC(=O)N1Cc2ccccc2Oc2ccc(Cl)cc21
The melting point of the first is lower: 133 to 135 °C for the first, 148 to 151 °C for the second.

First: CC(C)(C)C1OC1C(O)c1ccccc1 (stereo not given)
Second: CC(=NO)C(C)Oc1ccccc1 (stereo not given)
The melting point of the first is lower: 57 to 59 °C for the first, 65 to 67 °C for the second.

Compared with `CC1(C)CC(=O)C2=C(C1)NC1=C(C(=O)CC(C)(C)C1)C2c1ccc([N+](=O)[O-])c(OCc2ccccc2)c1`, `COC(=O)c1ccc(/C=C/c2cc3c(cc2CCCO)C(C)(C)CCC3(C)C)cc1` is lower in melting point: 239 to 240 °C for the first, 109 to 116 °C for the second.

First: COc1ccc2c(c1)CC(=O)C2
Second: COc1ccc(C(=O)N2CC(O)CC2C(=O)O)cc1 (stereo not given)
The melting point of the first is lower: 74 to 78 °C for the first, 192 °C for the second.

First: COc1cc(OC)nc(C(=O)O)n1
Second: COc1ncnc(OC)c1[N+](=O)[O-]
The melting point of the first is lower: 155 to 157 °C for the first, 168 to 170 °C for the second.

First: CC(C)(Cc1c[nH]c2ccc(Br)cc12)[N+](=O)[O-]
Second: O=[N+]([O-])c1ccc2c(c1)S(=O)(=O)N=C(NCC1CC1)N2
The melting point of the first is lower: 106 to 109 °C for the first, 276 to 278 °C for the second.

First: Cc1c(C)c2c(c(C)c1O)C(C(=O)O)C(C)(C)O2 (stereo not given)
Second: COc1ccc(C(=O)[C@H]2CC=CC[C@H]2C(=O)O)c2c1OC(C)(C)C2 (relative stereo)
The melting point of the first is higher: 161 to 164 °C for the first, 154 to 156 °C for the second.

Compared with `N=C1SCCN1c1ccc([N+](=O)[O-])cc1`, `NC(=O)C(c1ccc([N+](=O)[O-])cc1)c1ccccn1` (racemic) is lower in melting point: 166 °C for the first, 155 to 156 °C for the second.

Compared with `Clc1cccc2c1Sc1ccccc1N2C1=CCCN1C1=NCCC1`, `NC(=O)c1ncn2c1CN=C(c1ccccc1)c1cc(Cl)ccc1-2` is higher in melting point: 195 to 197 °C for the first, 295 to 296 °C for the second.

First: COc1ccc(-n2nc(CBr)cc2-c2ccc(Cl)cc2)cc1
Second: CCOCc1nc2cnc3cc(-c4ccccc4)ccc3c2n1CCOc1ccccc1
The melting point of the first is lower: 88 to 90 °C for the first, 137 to 138 °C for the second.

Compared with `Cc1cccc(C)c1N1CCN(CCC2CN(C)C(=O)O2)CC1` (stereo not given), `CC(=O)c1ccc(N2CCN(CCC(=O)O)CC2)cc1` is higher in melting point: 107 to 108 °C for the first, 204 to 206 °C for the second.

First: Nc1c(Cl)cc(C(=O)NC2CCN(CCO)CC2)c2c1CCO2
Second: O=C(Cc1ccc(Cl)c(Cl)c1)N1CCNC2CCCCC21 (stereo not given)
The melting point of the first is higher: 186 °C for the first, 119 to 120 °C for the second.

Compared with `CC(=CC(=O)c1cccnc1)NCC(O)COc1ccc(NC(=O)NC2CCCCC2)cc1` (stereo not given), `COCCOc1ccc(C=O)c2cc3ccccc3cc12` is lower in melting point: 168 °C for the first, 72 to 74 °C for the second.

First: CNC(=O)N(O)C(C)c1ccc(F)cc1F (stereo not given)
Second: CC(C)Sc1ccc(O)cc1O
The melting point of the first is higher: 125 to 134 °C for the first, 67 °C for the second.

First: CN1c2ccccc2N(C(=O)c2ccc(-c3ccccc3)cc2)Cc2cccnc21
Second: O=S(=O)(Cl)c1cccc(-c2cccc(-c3nc(-c4ccc(C(F)(F)F)cc4)cc(C(F)(F)F)n3)c2)c1
The melting point of the first is higher: 220 to 223 °C for the first, 176 °C for the second.

First: O=C(O)C1=Cc2cc(Cl)c(Oc3ccc(OC(F)(F)F)cc3)cc2OC1C(F)(F)F (stereo not given)
Second: C[C@]1(COc2ccc3nc(N4CCN(Cc5ccc(OC(F)(F)F)cc5)CC4)sc3c2)Cn2cc([N+](=O)[O-])nc2O1
The melting point of the first is lower: 198 to 199 °C for the first, 206 to 207 °C for the second.

First: CC(C)(C)OC(=O)N1CCN(c2ccc3[nH]c(S)nc3c2)CC1
Second: CNn1cc(C(=O)O)c(=O)c2cc(F)c(N3CCN(C)CC3)cc21
The melting point of the first is lower: 219 to 220 °C for the first, 299 to 301 °C for the second.

First: C=CCc1cccc2c(=O)cc(-c3ccc(F)c(F)c3)oc12
Second: C[C@H](Nc1ncnc2[nH]cnc12)c1oc2ccc(F)cc2c(=O)c1-c1cccc(F)c1
The melting point of the first is lower: 127 to 130 °C for the first, 194 to 197 °C for the second.

Compared with `CCOCc1nc2c(N)nc3ccccc3c2n1CCNC(=O)OC(C)(C)C`, `Cc1c(C(=O)Nc2ccc(OCC(C)(C)C)c(C#N)c2)cnn1CCO` is lower in melting point: 201 to 202 °C for the first, 98 to 100 °C for the second.

`COc1ccc(C(OCC2OC(n3cnc4c(=O)[nH]c(NC(=O)Cc5ccc(Cl)c(Cl)c5)nc43)CC2O)(c2ccccc2)c2ccc(OC)cc2)cc1` (stereo not given) and `Cc1ccc(-n2nc(C(C)(C)C)cc2NC(=O)NCc2ccccc2Oc2ccnc(N3CCN(C)CC3)n2)cc1` cannot be ordered by melting point: 150 to 155 °C for the first, 150 °C for the second.

First: CCOC(=N)c1sc2ccc(Cl)cc2c1O
Second: OCCOc1csc2ccccc12
The melting point of the first is higher: 236 °C for the first, 55 to 56 °C for the second.

First: c1ccc2c(c1)cc(Cn1ccnc1)c1ccsc12
Second: O=C1CCCC(c2ccccc2)N1c1ccccc1 (stereo not given)
The melting point of the first is lower: 109 to 111 °C for the first, 123 to 125 °C for the second.

First: CC(C)(C)OC(=O)NCC(=O)N1[C@@H](C(=O)OC(C)(C)C)C[C@H](S(=O)(=O)c2ccccc2)[C@H]1c1ccccc1F (racemic)
Second: CC(=O)N1CCc2ccc(S(=O)(=O)n3c(CCCC(=O)O)cc4cc(Cl)ccc43)cc2C1
The melting point of the first is higher: 134 °C for the first, 95 to 97 °C for the second.

First: COc1ccccc1N1CCN(CCCNC(=O)c2cccc3c(=O)c(C)c(C4CCC(C)CC4)oc23)CC1 (stereo not given)
Second: C=Cc1c2c(c(C)c(C)c1N1CCN(c3ccc(OC)cc3)CC1)OC(C)(C)C2
The melting point of the first is higher: 166 °C for the first, 135 to 136 °C for the second.

First: CS(=O)c1ccc(CCCCl)cc1 (stereo not given)
Second: N#Cc1cc(CBr)ccc1Cl
The melting point of the first is lower: 46 °C for the first, 55 to 58 °C for the second.

First: CCCN(CCC)[C@H]1Cc2c[nH]c3ccc(-c4nc(-c5ccccc5)no4)c(c23)C1
Second: O=C1CCC(N2Cc3cc(CNC(=O)c4cccc(C(F)(F)F)c4)ccc3C2=O)C(=O)N1 (stereo not given)
The melting point of the first is lower: 154 to 155 °C for the first, 244 to 246 °C for the second.

First: C=CCN(c1ccccc1)c1cc2c(cc1N(CC=C)c1ccccc1)C(=O)NC2=O
Second: c1ccc(Oc2ccc(C3(Cn4cncn4)OCCO3)cc2)cc1
The melting point of the first is higher: 122 to 127 °C for the first, 100 to 102 °C for the second.

First: CC1(C)OC(=O)Nc2ccc(/C=C/C(N)=O)cc21
Second: COc1cc(C=CC=O)ccc1OC(C)C
The melting point of the first is higher: 196 to 198 °C for the first, 93 to 94 °C for the second.

First: COCOC1CCC2(C)C(=CCC3C2CCC2(C)C(CO)CCC32)C1 (stereo not given)
Second: C=CC(C)C1CCC2C3CCC4=CC(O)CCC4(C)C3CCC12C (stereo not given)
The melting point of the first is lower: 102 to 105 °C for the first, 121 to 123 °C for the second.

Compared with `CC(=O)NCCc1nc(-c2csc(N=C(N)N)n2)cs1`, `NC(=O)c1ccc(CCCNCC(O)c2ccccc2)s1` (stereo not given) is lower in melting point: 226 to 227 °C for the first, 94 to 96 °C for the second.

First: C=CCc1cc2c(c(CC=C)c1O)NC(=O)CO2
Second: COc1cc(C=O)cc(OC)c1NC=O
The melting point of the first is lower: 114 to 115 °C for the first, 159 to 160 °C for the second.

Compared with `COC1=C(OC)C(=O)C(CCCCCCCCCCCOC(C)=O)=C(C)C1=O`, `COc1cc(OCc2cccnc2)ccc1/C=C/c1cc(/C=C/c2ccc3cc[nH]c3c2)n[nH]1` is higher in melting point: 41 °C for the first, 90 to 95 °C for the second.
